Assay results reported in PubChem BioAssay (NCI).
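Briefly, cells in 96-well plates were exposed to five compound concentrations for 48 h, and endpoints were estimated by linear interpolation. GI50: concentration for 50% inhibition of growth. Definition used: TGI = concentration required for complete inhibition of growth.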

Assays:
Assay in all cases: DTP human tumour cell line panel, 48 h
786-0 renal = test system: 786-0 renal
A498 renal = test system: A498 renal
A549 NSCLC = test system: A549 NSCLC
ACHN renal = test system: ACHN renal
BT-549 breast = test system: BT-549 breast
CAKI-1 renal = test system: CAKI-1 renal
CCRF-CEM leukemia = test system: CCRF-CEM leukemia
COLO 205 colon = test system: COLO 205 colon
DU-145 prostate = test system: DU-145 prostate
EKVX NSCLC = test system: EKVX NSCLC
HCC-2998 colon = test system: HCC-2998 colon
HCT-116 colon = test system: HCT-116 colon
HCT-15 colon = test system: HCT-15 colon
HL-60(TB) leukemia = test system: HL-60(TB) leukemia
HOP-62 NSCLC = test system: HOP-62 NSCLC
HOP-92 NSCLC = test system: HOP-92 NSCLC
HS 578T breast = test system: HS 578T breast
HT29 colon = test system: HT29 colon
IGROV1 ovarian = test system: IGROV1 ovarian
K-562 leukemia = test system: K-562 leukemia
KM12 colon = test system: KM12 colon
LOX IMVI melanoma = test system: LOX IMVI melanoma
M14 melanoma = test system: M14 melanoma
MALME-3M melanoma = test system: MALME-3M melanoma
MCF7 breast = test system: MCF7 breast
MDA-MB-231 breast = test system: MDA-MB-231 breast
MDA-MB-435 = test system: MDA-MB-435
MDA-MB-468 breast = test system: MDA-MB-468 breast
MOLT-4 leukemia = test system: MOLT-4 leukemia
NCI-H226 lung = test system: NCI-H226 lung
NCI-H23 lung = test system: NCI-H23 lung
NCI-H460 lung = test system: NCI-H460 lung
NCI-H522 lung = test system: NCI-H522 lung
NCI/ADR-RES ovarian = test system: NCI/ADR-RES ovarian
OVCAR-3 ovarian = test system: OVCAR-3 ovarian
OVCAR-4 ovarian = test system: OVCAR-4 ovarian
OVCAR-5 ovarian = test system: OVCAR-5 ovarian
OVCAR-8 ovarian = test system: OVCAR-8 ovarian
PC-3 prostate = test system: PC-3 prostate
RPMI-8226 leukemia = test system: RPMI-8226 leukemia
RXF 393 renal = test system: RXF 393 renal
SF-268 CNS = test system: SF-268 CNS
SF-295 CNS = test system: SF-295 CNS
SF-539 CNS = test system: SF-539 CNS
SK-MEL-2 melanoma = test system: SK-MEL-2 melanoma
SK-MEL-28 melanoma = test system: SK-MEL-28 melanoma
SK-MEL-5 melanoma = test system: SK-MEL-5 melanoma
SK-OV-3 ovarian = test system: SK-OV-3 ovarian
SN12C renal = test system: SN12C renal
SNB-19 CNS = test system: SNB-19 CNS
SNB-75 CNS = test system: SNB-75 CNS
SR leukemia = test system: SR leukemia
SW-620 colon = test system: SW-620 colon
T-47D breast = test system: T-47D breast
TK-10 renal = test system: TK-10 renal
U251 CNS = test system: U251 CNS
UACC-257 melanoma = test system: UACC-257 melanoma
UACC-62 melanoma = test system: UACC-62 melanoma
UO-31 renal = test system: UO-31 renal

In the case of `COc1ccc(/C=C/C(=O)c2ccc(N3CCN(C)CC3)cc2)c(C(F)(F)F)c1`, the GI50 (786-0 renal) was 12.5 µM, the TGI (786-0 renal) was 37.7 µM and the GI50 (A498 renal) was 16.5 µM. It also gave a TGI (A498 renal) of 30.8 µM, a GI50 (A549 NSCLC) of 13.2 µM and a TGI (A549 NSCLC) of 30.1 µM. For the same compound, the GI50 (ACHN renal) was 15.1 µM, the TGI (ACHN renal) was 28.3 µM and the GI50 (BT-549 breast) was 14.5 µM. For the same compound, the TGI (BT-549 breast) was 29.1 µM, the GI50 (CAKI-1 renal) was 14.2 µM and the TGI (CAKI-1 renal) was 27.5 µM. For the same compound, the GI50 (CCRF-CEM leukemia) was 7.61 µM, the TGI (CCRF-CEM leukemia) was 53.1 µM and the GI50 (COLO 205 colon) was 15.6 µM. The TGI (COLO 205 colon) was 35.5 µM, the GI50 (DU-145 prostate) was 14.9 µM and the TGI (DU-145 prostate) was 31.2 µM. The GI50 (EKVX NSCLC) was 12.7 µM, the TGI (EKVX NSCLC) was 25.4 µM and the GI50 (HCC-2998 colon) was 12 µM. For the same compound, the TGI (HCC-2998 colon) was 24.3 µM, the GI50 (HCT-116 colon) was 5.61 µM and the TGI (HCT-116 colon) was 39 µM. For the same compound, the GI50 (HCT-15 colon) was 4.61 µM, the TGI (HCT-15 colon) was 16.5 µM and the GI50 (HL-60(TB) leukemia) was 4.87 µM. It also gave a TGI (HL-60(TB) leukemia) of 24.7 µM, a GI50 (HOP-62 NSCLC) of 19.3 µM and a TGI (HOP-62 NSCLC) of 37 µM. It also gave a GI50 (HOP-92 NSCLC) of 10.1 µM, a TGI (HOP-92 NSCLC) of 25.8 µM and a GI50 (HS 578T breast) of 14.9 µM. The TGI (HS 578T breast) was 46.5 µM, the GI50 (HT29 colon) was 4.88 µM and the TGI (HT29 colon) was 22.3 µM. The GI50 (IGROV1 ovarian) was 15.4 µM, the TGI (IGROV1 ovarian) was 29 µM and the GI50 (K-562 leukemia) was 2.96 µM. For the same compound, the TGI (K-562 leukemia) was 22.1 µM, the GI50 (KM12 colon) was 11 µM and the TGI (KM12 colon) was 24.9 µM. For the same compound, the GI50 (LOX IMVI melanoma) was 8.56 µM, the TGI (LOX IMVI melanoma) was 20.9 µM and the GI50 (M14 melanoma) was 14.4 µM. For the same compound, the TGI (M14 melanoma) was 34.5 µM, the GI50 (MALME-3M melanoma) was 12.9 µM and the TGI (MALME-3M melanoma) was 25.6 µM. For the same compound, the GI50 (MCF7 breast) was 4.6 µM, the TGI (MCF7 breast) was 19.5 µM and the GI50 (MDA-MB-231 breast) was 16.8 µM. It also gave a TGI (MDA-MB-231 breast) of 30.5 µM, a GI50 (MDA-MB-435) of 11.3 µM and a TGI (MDA-MB-435) of 24.7 µM. The GI50 (MDA-MB-468 breast) was 3.54 µM, the TGI (MDA-MB-468 breast) was 13.9 µM and the GI50 (MOLT-4 leukemia) was 9.11 µM. The TGI (MOLT-4 leukemia) was 32.8 µM, the GI50 (NCI-H226 lung) was 12.4 µM and the TGI (NCI-H226 lung) was 28.3 µM. For the same compound, the GI50 (NCI-H23 lung) was 11.2 µM, the TGI (NCI-H23 lung) was 23.2 µM and the GI50 (NCI-H460 lung) was 14 µM. It also gave a TGI (NCI-H460 lung) of 27.9 µM, a GI50 (NCI-H522 lung) of 15.9 µM and a TGI (NCI-H522 lung) of 31.9 µM. It also gave a GI50 (NCI/ADR-RES ovarian) of 13.2 µM, a TGI (NCI/ADR-RES ovarian) of 26.4 µM and a GI50 (OVCAR-3 ovarian) of 14.4 µM. For the same compound, the TGI (OVCAR-3 ovarian) was 29.3 µM, the GI50 (OVCAR-4 ovarian) was 15.5 µM and the TGI (OVCAR-4 ovarian) was 34.4 µM. For the same compound, the GI50 (OVCAR-5 ovarian) was 16.2 µM, the TGI (OVCAR-5 ovarian) was 29.7 µM and the GI50 (OVCAR-8 ovarian) was 20.8 µM. The TGI (OVCAR-8 ovarian) was 49.3 µM, the GI50 (PC-3 prostate) was 13.2 µM and the TGI (PC-3 prostate) was 40.4 µM. The GI50 (RPMI-8226 leukemia) was 3.4 µM, the TGI (RPMI-8226 leukemia) was 47.7 µM and the GI50 (RXF 393 renal) was 4.12 µM. For the same compound, the TGI (RXF 393 renal) was 18.9 µM, the GI50 (SF-268 CNS) was 18.9 µM and the TGI (SF-268 CNS) was 41 µM. The GI50 (SF-295 CNS) was 13.9 µM, the TGI (SF-295 CNS) was 27.2 µM and the GI50 (SF-539 CNS) was 14.2 µM. The TGI (SF-539 CNS) was 27.2 µM, the GI50 (SK-MEL-2 melanoma) was 17.5 µM and the TGI (SK-MEL-2 melanoma) was 32.7 µM. It also gave a GI50 (SK-MEL-28 melanoma) of 14.7 µM, a TGI (SK-MEL-28 melanoma) of 27.9 µM and a GI50 (SK-MEL-5 melanoma) of 7.97 µM. It also gave a TGI (SK-MEL-5 melanoma) of 20.6 µM, a GI50 (SK-OV-3 ovarian) of 16.7 µM and a TGI (SK-OV-3 ovarian) of 33.5 µM. The GI50 (SN12C renal) was 13.3 µM, the TGI (SN12C renal) was 26.4 µM and the GI50 (SNB-19 CNS) was 14.8 µM. It also gave a TGI (SNB-19 CNS) of 27.9 µM, a GI50 (SNB-75 CNS) of 11.7 µM and a TGI (SNB-75 CNS) of 24.5 µM. The GI50 (SR leukemia) was 6.74 µM, the TGI (SR leukemia) was > 100 µM and the GI50 (SW-620 colon) was 11.2 µM. It also gave a TGI (SW-620 colon) of 23.9 µM, a GI50 (T-47D breast) of 13.7 µM and a TGI (T-47D breast) of 34.6 µM. For the same compound, the GI50 (TK-10 renal) was 17.7 µM, the TGI (TK-10 renal) was 32.8 µM and the GI50 (U251 CNS) was 11.7 µM. The TGI (U251 CNS) was 34.4 µM, the GI50 (UACC-257 melanoma) was 15.3 µM and the TGI (UACC-257 melanoma) was 30.8 µM. For the same compound, the GI50 (UACC-62 melanoma) was 14.1 µM, the TGI (UACC-62 melanoma) was 27 µM and the GI50 (UO-31 renal) was 12.3 µM. The TGI (UO-31 renal) was 24.7 µM.
